In paper PMC9270327 (Communications Biology, 2022):
Read-outs that look alike come from different tables or passages of the source.

How the values were obtained:
[1] = test system: SARS-CoV-2 Alpha (B.1.1.7), Caco-2 cells; assay type: cell-based; details: for SARS-CoV-2 infection, Mean (0 nM = 100): Fig. 6c, VOC Alpha
TMPRSS2 = TMPRSS2 (Homo sapiens, UniProt O15393); assay: Plasma stability: residual TMPRSS2 inhibition after incubation in human plasma
TMPRSS2, sequence (O15393 whole entry): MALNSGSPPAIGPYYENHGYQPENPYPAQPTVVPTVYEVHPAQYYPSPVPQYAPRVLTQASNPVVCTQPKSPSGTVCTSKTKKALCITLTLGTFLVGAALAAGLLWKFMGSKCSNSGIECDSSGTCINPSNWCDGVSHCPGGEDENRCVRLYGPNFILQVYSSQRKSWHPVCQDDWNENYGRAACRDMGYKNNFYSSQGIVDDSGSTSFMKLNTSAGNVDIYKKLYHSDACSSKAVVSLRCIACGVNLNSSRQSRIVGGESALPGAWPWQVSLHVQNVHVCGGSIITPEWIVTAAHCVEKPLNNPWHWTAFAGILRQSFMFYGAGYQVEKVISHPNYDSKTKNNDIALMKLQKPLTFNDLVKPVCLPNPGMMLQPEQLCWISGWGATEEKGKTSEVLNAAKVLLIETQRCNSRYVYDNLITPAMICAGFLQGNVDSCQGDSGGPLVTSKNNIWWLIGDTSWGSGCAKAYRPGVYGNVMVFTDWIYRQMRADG
Description: The activity of the compounds against the recombinant human enzymes was determined in enzyme inhibition assays. […] The measurements were performed on a Tecan infinite® M1000 and the fluorescence intensity was measured by exciting the AMC fluorophore at 380 nm wavelength and recording emission at 460 nm wavelength. […] Fluorescence intensities and absorption were measured every 2 min for 2 h or as endpoint after 2 h. […] To determine the IC50 values, the concentration-response data were plotted with the program GraphPad prism version 8.4.2 (San Diego, California) and a nonlinear regression fit with the equation [Inhibitor] vs. normalized response was applied. The inhibitory constant Ki was calculated from the IC50 values using the Cheng–Prusoff equation (Ki = IC50/[S]/KM) for competitive reversible inhibitors[66].
The stability of the inhibitors was measured according to a modified procedure from ref. [67]. […] At indicated timepoints, 100 µL samples were taken and mixed with 200 µL of ethanol to precipitate proteins. […] The supernatant was aspirated and analyzed using analytical HPLC. The residual inhibitory constants Ki after incubation was assessed by mixing serial dilutions of the inhibitor with recombinant TMPRSS2 as described above.
Shown are the means ± SD of n=1 experiment performed in triplicates.

Substance: ace-Arg-Pro-Arg-kbt [Compound 2]
- SARS-CoV-2 infection, Mean (0 nM = 100) ([1]; compound 160 nM): 107.747
- SARS-CoV-2 infection, Mean (0 nM = 100) ([1]; compound 800 nM): 109.671
- SARS-CoV-2 infection, Mean (0 nM = 100) ([1]; compound 4000 nM): 112.829
- SARS-CoV-2 infection, Mean (0 nM = 100) ([1]; compound 20000 nM): 1.3092
- SARS-CoV-2 infection, Mean (0 nM = 100) ([1]; compound 100000 nM): -2.734
- IC50 ([1]; read-out: IC50 SARS-CoV-2 Alpha): ~20 µM
- TMPRSS2 activity, Mean (0 nM = 100) (TMPRSS2; inhibitor 0.0167 nM, 0 min in plasma): 108.191
- TMPRSS2 activity, Mean (0 nM = 100) (TMPRSS2; inhibitor 0.0167 nM, 30 min in plasma): 105.387
- TMPRSS2 activity, Mean (0 nM = 100) (TMPRSS2; inhibitor 0.0167 nM, 60 min in plasma): 97.3483
- TMPRSS2 activity, Mean (0 nM = 100) (TMPRSS2; inhibitor 0.0167 nM, 120 min in plasma): 100.611
- TMPRSS2 activity, Mean (0 nM = 100) (TMPRSS2; inhibitor 0.0167 nM, 24 h in plasma): 95.898
- TMPRSS2 activity, Mean (0 nM = 100) (TMPRSS2; inhibitor 0.0167 nM, 10 d in plasma): 98.4437
- TMPRSS2 activity, Mean (0 nM = 100) (TMPRSS2; inhibitor 0.0167 nM, positive ctrl): 103.005
- TMPRSS2 activity, Mean (0 nM = 100) (TMPRSS2; inhibitor 0.167 nM, 0 min in plasma): 105.131
- TMPRSS2 activity, Mean (0 nM = 100) (TMPRSS2; inhibitor 0.167 nM, 30 min in plasma): 104.481
- TMPRSS2 activity, Mean (0 nM = 100) (TMPRSS2; inhibitor 0.167 nM, 60 min in plasma): 96.8072
- TMPRSS2 activity, Mean (0 nM = 100) (TMPRSS2; inhibitor 0.167 nM, 120 min in plasma): 98.0518
- TMPRSS2 activity, Mean (0 nM = 100) (TMPRSS2; inhibitor 0.167 nM, 24 h in plasma): 93.482
- TMPRSS2 activity, Mean (0 nM = 100) (TMPRSS2; inhibitor 0.167 nM, 10 d in plasma): 101.036
- TMPRSS2 activity, Mean (0 nM = 100) (TMPRSS2; inhibitor 0.167 nM, positive ctrl): 100.219
- TMPRSS2 activity, Mean (0 nM = 100) (TMPRSS2; inhibitor 1.665 nM, 0 min in plasma): 102.769
- TMPRSS2 activity, Mean (0 nM = 100) (TMPRSS2; inhibitor 1.665 nM, 30 min in plasma): 100.449
- TMPRSS2 activity, Mean (0 nM = 100) (TMPRSS2; inhibitor 1.665 nM, 60 min in plasma): 96.1849
- TMPRSS2 activity, Mean (0 nM = 100) (TMPRSS2; inhibitor 1.665 nM, 120 min in plasma): 100.213
- TMPRSS2 activity, Mean (0 nM = 100) (TMPRSS2; inhibitor 1.665 nM, 24 h in plasma): 98.9115
- TMPRSS2 activity, Mean (0 nM = 100) (TMPRSS2; inhibitor 1.665 nM, 10 d in plasma): 97.0442
- TMPRSS2 activity, Mean (0 nM = 100) (TMPRSS2; inhibitor 1.665 nM, positive ctrl): 88.8492
- TMPRSS2 activity, Mean (0 nM = 100) (TMPRSS2; inhibitor 16.65 nM, 0 min in plasma): 86.0968
- TMPRSS2 activity, Mean (0 nM = 100) (TMPRSS2; inhibitor 16.65 nM, 30 min in plasma): 100.379
- TMPRSS2 activity, Mean (0 nM = 100) (TMPRSS2; inhibitor 16.65 nM, 60 min in plasma): 78.8625
- TMPRSS2 activity, Mean (0 nM = 100) (TMPRSS2; inhibitor 16.65 nM, 120 min in plasma): 82.8569
- TMPRSS2 activity, Mean (0 nM = 100) (TMPRSS2; inhibitor 16.65 nM, 24 h in plasma): 83.5789
- TMPRSS2 activity, Mean (0 nM = 100) (TMPRSS2; inhibitor 16.65 nM, 10 d in plasma): 88.0057
- TMPRSS2 activity, Mean (0 nM = 100) (TMPRSS2; inhibitor 16.65 nM, positive ctrl): 53.0338
- TMPRSS2 activity, Mean (0 nM = 100) (TMPRSS2; inhibitor 166.5 nM, 0 min in plasma): 23.84
- TMPRSS2 activity, Mean (0 nM = 100) (TMPRSS2; inhibitor 166.5 nM, 30 min in plasma): 25.2709
- TMPRSS2 activity, Mean (0 nM = 100) (TMPRSS2; inhibitor 166.5 nM, 60 min in plasma): 26.798
- TMPRSS2 activity, Mean (0 nM = 100) (TMPRSS2; inhibitor 166.5 nM, 120 min in plasma): 22.618
- TMPRSS2 activity, Mean (0 nM = 100) (TMPRSS2; inhibitor 166.5 nM, 24 h in plasma): 21.6315
- TMPRSS2 activity, Mean (0 nM = 100) (TMPRSS2; inhibitor 166.5 nM, 10 d in plasma): 39.6688
- TMPRSS2 activity, Mean (0 nM = 100) (TMPRSS2; inhibitor 166.5 nM, positive ctrl): 13.9877
- TMPRSS2 activity, Mean (0 nM = 100) (TMPRSS2; inhibitor 1665 nM, 0 min in plasma): 0.5738
- TMPRSS2 activity, Mean (0 nM = 100) (TMPRSS2; inhibitor 1665 nM, 30 min in plasma): 7.5387
- TMPRSS2 activity, Mean (0 nM = 100) (TMPRSS2; inhibitor 1665 nM, 60 min in plasma): 0.2056
- TMPRSS2 activity, Mean (0 nM = 100) (TMPRSS2; inhibitor 1665 nM, 120 min in plasma): 7.6223
- TMPRSS2 activity, Mean (0 nM = 100) (TMPRSS2; inhibitor 1665 nM, 24 h in plasma): 2.774
- TMPRSS2 activity, Mean (0 nM = 100) (TMPRSS2; inhibitor 1665 nM, 10 d in plasma): 10.1282
- TMPRSS2 activity, Mean (0 nM = 100) (TMPRSS2; inhibitor 1665 nM, positive ctrl): 12.6313
